Among the test systems are K-562 leukemia; MCF7 breast; MDA-MB-435; PC-3 prostate; SF-295 CNS; SK-MEL-28 melanoma; SN12C renal; SR leukemia; UO-31 renal; ACHN renal.
Common to all, as to test: NCI-60 cell line screen, 48 h

Values joined by “and” are separate entries in the source; they are usually repeats but may differ in a detail not shown here. Equal entries are not always repeated.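 How tested: cells in 96-well plates exposed to compound for 48 hours at five concentrations. The concentration for 50% growth inhibition is given as GI50. TGI is the concentration that stops growth completely.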 Some results are limits rather than exact numbers.

In the case of `COC(Cc1cc(C(O)(c2ccc(C(C)(C)C)cc2)c2cc(CC(OC)(c3cc(C(OC)(c4ccc(C(C)(C)C)cc4)c4ccc(C(C)(C)C)cc4)c(C)cc3C)c3cc(C(OC)(c4ccc(C(C)(C)C)cc4)c4ccc(C(C)(C)C)cc4)c(C)cc3C)c(C)cc2C)c(C)cc1C)(c1cc(C(OC)(c2ccc(C(C)(C)C)cc2)c2ccc(C(C)(C)C)cc2)c(C)cc1C)c1cc(C(OC)(c2ccc(C(C)(C)C)cc2)c2ccc(C(C)(C)C)cc2)c(C)cc1C`, the TGI with K-562 leukemia, in the assay on MCF7 breast, in the assay on MDA-MB-435, in the assay on PC-3 prostate, with SF-295 CNS and in the assay on SK-MEL-28 melanoma was over 75 µM in each case. Also, the TGI in the assay with SN12C renal, in the assay with SR leukemia and in the assay on UO-31 renal was over 75 µM each time.
In the case of `CC(C)(C)c1ccc(NS(=O)(=O)c2ccc(N)cc2)cc1`, the TGI with ACHN renal stood at 83.6 µM; with K-562 leukemia, 41.7 µM; in the assay on MCF7 breast it was 39 µM; in the assay on MDA-MB-435, 73.5 µM; in the assay on PC-3 prostate it was 85.7 µM; in the assay on SF-295 CNS, 14 µM. Moreover, the figures for the TGI in the assay with SK-MEL-28 melanoma, with SN12C renal and in the assay on UO-31 renal were 63.7 µM, 48.6 µM and 73.5 µM, respectively.
On to `Cc1cc(C)n(CN(CCCCO)Cn2nc(C)cc2C)n1`, for which the TGI in the assay on ACHN renal was 39.4 µM; in the assay with K-562 leukemia, 52.7 µM; in the assay with MCF7 breast, 68.3 µM; in the assay on MDA-MB-435, 38.4 µM; in the assay on PC-3 prostate, 57.7 µM; with SF-295 CNS, over 100 µM. In addition, the TGI was 39.3 µM in the assay on SK-MEL-28 melanoma, 67 µM in the assay on SN12C renal, 28.7 µM in the assay with SR leukemia and 69.1 µM in the assay on UO-31 renal.
`COc1ccc2c(c1)C(=O)c1c-2n(CCCN=[N+]=[N-])c(=O)c2cc([N+](=O)[O-])ccc12`: the GI50 was 0.0443 µM with ACHN renal; 0.0782 µM and 0.0653 µM in the assay with K-562 leukemia; under 0.001 µM in the assay with MCF7 breast; 0.252 µM and 0.491 µM with MDA-MB-435; 0.033 µM in the assay on SF-295 CNS; 15.1 µM with SK-MEL-28 melanoma. Further, the GI50 in the assay with SN12C renal is 0.314 µM; in the assay with UO-31 renal, under 0.001 µM. For the same compound, the TGI in the assay with K-562 leukemia was 16.3 µM; in the assay with MCF7 breast, 4.83 µM; in the assay on MDA-MB-435, over 100 µM; in the assay on PC-3 prostate it was over 100 µM; with SF-295 CNS, 0.222 µM and 0.529 µM; in the assay on SK-MEL-28 melanoma it was over 100 µM. The TGI with SN12C renal was 2.01 µM; with SR leukemia it was 13.4 µM; with UO-31 renal, 2.22 µM.
For the compound `O=S(=O)(O)c1ccc(N=Nc2ccc(N=Nc3c(O)ccc4ccc(S(=O)(=O)O)cc34)cc2)cc1`, the TGI in the assay with ACHN renal, in the assay on K-562 leukemia, in the assay with MCF7 breast, in the assay with MDA-MB-435, with PC-3 prostate and with SF-295 CNS was over 100 µM in each case. Further, the TGI with SK-MEL-28 melanoma, in the assay on SN12C renal, with SR leukemia and in the assay with UO-31 renal was over 100 µM throughout.
For `O=C(N/N=C\c1ccc(N(CCCl)CCCl)cc1)c1cccnc1`, the GI50 was 31.6 µM in the assay with ACHN renal; 32.2 µM with K-562 leukemia; 20.9 µM in the assay with MCF7 breast; 33.4 µM in the assay with MDA-MB-435; 65.4 µM with PC-3 prostate; 6.31 µM with SF-295 CNS. The GI50 was over 100 µM in the assay on SK-MEL-28 melanoma, 20.6 µM in the assay with SN12C renal, 3.1 µM in the assay with SR leukemia and 14.1 µM in the assay with UO-31 renal. Further, the TGI in the assay with ACHN renal is over 100 µM; in the assay on K-562 leukemia it was over 100 µM; in the assay with MCF7 breast it was over 100 µM; in the assay with MDA-MB-435, over 100 µM; in the assay with PC-3 prostate, over 100 µM; in the assay with SF-295 CNS, 73.2 µM. For the same compound, the TGI in the assay with SK-MEL-28 melanoma, in the assay on SN12C renal, in the assay on SR leukemia and in the assay on UO-31 renal was over 100 µM each time.
Consider `CCOC(=O)NC(=O)c1cn(CCN(CCO)C(=O)NCCCCCCNC(=O)N(CCO)CCn2cc(C(=O)NC(=O)OCC)c(=O)[nH]c2=O)c(=O)[nH]c1=O`, for which the TGI in the assay with K-562 leukemia, with MCF7 breast, in the assay on SF-295 CNS, in the assay on SK-MEL-28 melanoma, with SN12C renal and with UO-31 renal was over 100 µM throughout.
As to `CCCC[n+]1ccn(-c2nc3ccccc3n2C)c1`, the TGI in the assay on ACHN renal, with K-562 leukemia, in the assay on SF-295 CNS, in the assay on SN12C renal, in the assay on SR leukemia and in the assay with UO-31 renal was over 100 µM throughout.
`C/C=C(\C)C(=O)OC1C2C(C)=CC(=O)C(O)C2(C)C2C3(O)OCC24C1OC(=O)C(OC(C)=O)C4C(C)C3O` (configuration not stated): the TGI in the assay with K-562 leukemia stood at 0.375 µM; in the assay on SF-295 CNS it was 0.0959 µM; in the assay on SK-MEL-28 melanoma, 0.0397 µM; in the assay with SN12C renal, 0.468 µM; with UO-31 renal it was 0.887 µM.
As to `CC1=C/C(=N\NS(=O)(=O)c2ccc([N+](=O)[O-])cc2)CC(C)(C)C1`, the TGI with ACHN renal, in the assay with K-562 leukemia, in the assay on MCF7 breast, in the assay on MDA-MB-435, in the assay on PC-3 prostate and in the assay with SF-295 CNS was over 100 µM throughout. The TGI with SK-MEL-28 melanoma, with SN12C renal, in the assay on SR leukemia and in the assay on UO-31 renal was over 100 µM in each case.

These data come from PubChem BioAssay (NCI).
